Laboratory results from patent US20100047308A1, “Production methods of virus inactivated and cell-free body implant” (priority 2006, published 2010).

Test system: L-929 cells (fibroblasts)
Assay: Cytotoxicity of graft exudates according to USP <87> (cell lysis, inhibition of cell growth)
Conditions: 24 hours, USP <87> qualitative method
Method: The acellular dermal implants obtained after treatment with the solvent/detergent were powdered and mixed with 1 ml of distilled water for every 300 mg of the powder. To 4 g of the mixed sample was added 20 ml of physiological saline, followed by extraction at 37° C. for 72 hours. Tests were conducted within 24 hours after the completion of the extraction. The extract was mixed at a volume ratio of 1:2 with a culture medium (MEM). L-929 cells (fibroblasts), which are usually used in inhibition tests because of their high susceptibility to chemicals, were plated at a density of 10^5 cells per ml before culturing. […] This experiment was repeated three times while cytotoxicity was evaluated according to the qualitative method of USP <87>.
In order to examine whether the solvent/detergent solution remaining in the acellular dermal implants had toxic effects on cells of the patient, the exudates from the grafts were assayed for cytotoxicity.

C[S+](C)[O-] [Positive Control, DMSO]
Exudate Grades (cytotoxicity): 4
